Assay results as given in the NIST ThermoML archive (doi:10.1016/j.tca.2006.01.013).

Conditions: 101.33 kPa, Liquid, Vibrating tube method

NCCN [ethane-1,2-diamine]
Conditions | mass density [kg/m3]
285.15 K | 904.27
285.65 K | 903.81
286.15 K | 903.34
286.65 K | 902.87
287.15 K | 902.41
287.65 K | 901.94
288.15 K | 901.47
288.65 K | 901
289.15 K | 900.53
289.65 K | 900.07
290.15 K | 899.6
290.65 K | 899.13
291.15 K | 898.66
291.65 K | 898.19
292.15 K | 897.72
292.65 K | 897.25
293.15 K | 896.78
293.65 K | 896.31
294.15 K | 895.85
294.65 K | 895.38
295.15 K | 894.91
295.65 K | 894.44
296.15 K | 893.97
296.65 K | 893.5
297.15 K | 893.03
297.65 K | 892.56
298.15 K | 892.09
298.65 K | 891.62
299.15 K | 891.14
299.65 K | 890.67
300.15 K | 890.2
300.65 K | 889.73
301.15 K | 889.26
301.65 K | 888.79
302.15 K | 888.32
302.65 K | 887.85
303.15 K | 887.38
303.65 K | 886.9
304.15 K | 886.43
304.65 K | 885.96
305.15 K | 885.49
305.65 K | 885.02
306.15 K | 884.54
306.65 K | 884.07
307.15 K | 883.6
307.65 K | 883.12
308.15 K | 882.65
308.65 K | 882.18
309.15 K | 881.7
309.65 K | 881.23
310.15 K | 880.76
310.65 K | 880.28
311.15 K | 879.81
311.65 K | 879.33
312.15 K | 878.86
312.65 K | 878.38
313.15 K | 877.91
313.65 K | 877.44
314.15 K | 876.96
314.65 K | 876.48
315.15 K | 876.01
315.65 K | 875.53
316.15 K | 875.06
316.65 K | 874.58
317.15 K | 874.11
317.65 K | 873.63
318.15 K | 873.15
318.65 K | 872.68
319.15 K | 872.2
319.65 K | 871.72
320.15 K | 871.25
320.65 K | 870.77
321.15 K | 870.29
321.65 K | 869.81
322.15 K | 869.34
322.65 K | 868.86
323.15 K | 868.38
323.65 K | 867.9
324.15 K | 867.42
324.65 K | 866.94
325.15 K | 866.47
325.65 K | 865.99
326.15 K | 865.51
326.65 K | 865.03
327.15 K | 864.55
327.65 K | 864.07
328.15 K | 863.59
328.65 K | 863.11
329.15 K | 862.63
329.65 K | 862.14
330.15 K | 861.66
330.65 K | 861.18
331.15 K | 860.7
331.65 K | 860.22
332.15 K | 859.74
332.65 K | 859.25
333.15 K | 858.77
333.65 K | 858.29
334.15 K | 857.81
334.65 K | 857.32
335.15 K | 856.84
335.65 K | 856.36
336.15 K | 855.87
336.65 K | 855.39
337.15 K | 854.91
337.65 K | 854.42
338.15 K | 853.93
338.65 K | 853.45
339.15 K | 852.96
339.65 K | 852.48
340.15 K | 851.99
340.65 K | 851.51
341.15 K | 851.02
341.65 K | 850.53
342.15 K | 850.05
342.65 K | 849.56
343.15 K | 849.07
343.65 K | 848.58
344.15 K | 848.1
344.65 K | 847.61
345.15 K | 847.12
345.65 K | 846.63
346.15 K | 846.14
346.65 K | 845.66
347.15 K | 845.17
347.65 K | 844.68
348.15 K | 844.19
348.65 K | 843.7
349.15 K | 843.21
349.65 K | 842.72
350.15 K | 842.23
350.65 K | 841.75
351.15 K | 841.26
351.65 K | 840.76
352.15 K | 840.27
352.65 K | 839.78
353.15 K | 839.29
353.65 K | 838.8
354.15 K | 838.31
354.65 K | 837.81
355.14 K | 837.32
355.65 K | 836.83
356.15 K | 836.33
356.64 K | 835.84
357.15 K | 835.35
357.65 K | 834.85
358.14 K | 834.36
358.64 K | 833.86
359.14 K | 833.37
359.64 K | 832.87
360.14 K | 832.38
360.64 K | 831.88
361.14 K | 831.38
361.65 K | 830.89
362.15 K | 830.39
362.65 K | 829.89
363.15 K | 829.4
